Measured values: patent publication US20020028938A1, “Prostaglandin endoperoxide H synthase biosynthesis inhibitors” (priority 1997, published 2002)
Several values for one entry are separate records, joined by “and”; a condition that tells them apart may be missing. Equal values may be shown once.

Assays:
[1] = molecular target: T1, recombinant human Cox-1 (r-hu Cox1) (Homo sapiens, UniProt P23219); experiment: Recombinant human PGHS-1 enzyme assay (RHUCX1); format: biochemical
T1 construct: made in house; host or cells: baculovirus/Sf9 insect cells (microsomes)
Outline: (§1)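 PGE2 production measured by enzyme immunoassay with standards in the same milieu. Inhibition was computed versus control group mean and IC50 estimated by linear regression.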

[2] = molecular target: T2, recombinant human Cox-2 (r-hu Cox-2) (Homo sapiens, UniProt P35354); experiment: Recombinant human PGHS-2 enzyme assay (RHUCX2); format: biochemical; conditions: for inhibition at 0.1 µM / inhibition at 1 µM / inhibition at 10 µM: read-out: RHUCX2 % Inh. at Dose; for IC50: read-out: RHUCX2 IC50 (parenthetical value)
T2 construct: made in house; host or cells: baculovirus/Sf9 insect cells (microsomes)
T2 sequence (P35354 18-604): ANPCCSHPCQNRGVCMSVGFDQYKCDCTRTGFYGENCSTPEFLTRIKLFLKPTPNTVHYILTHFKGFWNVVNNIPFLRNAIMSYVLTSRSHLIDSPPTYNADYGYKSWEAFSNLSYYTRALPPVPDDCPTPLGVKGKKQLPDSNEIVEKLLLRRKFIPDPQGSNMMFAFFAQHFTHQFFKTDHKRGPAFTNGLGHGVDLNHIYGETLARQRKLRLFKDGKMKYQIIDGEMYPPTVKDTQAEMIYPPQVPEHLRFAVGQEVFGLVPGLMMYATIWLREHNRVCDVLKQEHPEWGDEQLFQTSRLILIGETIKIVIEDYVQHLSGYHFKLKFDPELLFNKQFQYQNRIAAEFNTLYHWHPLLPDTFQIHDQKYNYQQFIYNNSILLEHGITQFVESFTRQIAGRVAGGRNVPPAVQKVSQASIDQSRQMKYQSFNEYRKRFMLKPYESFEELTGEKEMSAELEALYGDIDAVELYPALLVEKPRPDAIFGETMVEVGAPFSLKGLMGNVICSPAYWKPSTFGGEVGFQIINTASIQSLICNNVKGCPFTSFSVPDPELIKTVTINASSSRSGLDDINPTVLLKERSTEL
Outline: as §1

[3] = system: prostaglandin biosynthesis in vivo (pleural lavage eicosanoids); experiment: Rat carrageenan pleural inflammation (CIP) model; conditions: 10 mpk oral; for inhibition in vivo at 10 mg/kg: 4 h, read-out: CIP % Inhib. @ 10 mpk
Protocol: (§2) For oral administration, test compounds were suspended on the day of use in 100% polyethyleneglycol (PEG 400) with a motorized homogenizer equipped with a Teflon-coated pestle (TRI-R Instrument, Jamaica, N.Y.).
(§3) To compare the mean responses of the treatment groups, analysis of variance was applied. Percent inhibition values were determined by comparing the individual treatment mean values to the mean of the control group. Linear regression was used to estimate IC50's/ED50's in appropriate assays.
Pleural inflammation was induced in male adrenalectomized Sprague-Dawley rats following the method of Vinegar et al., Fed. Proc. 1976, 35, 2447-2456. Animals were orally dosed with experimental compounds, 30 minutes prior to the intrapleural injection of 2% lambda carrageenan (Sigma Chemical Co., St. Louis Mo.). Four hours later the animals were euthanized and the pleural cavities lavaged with ice cold saline. The lavage fluid was then added to two volumes of ice cold methanol (final methanol concentration 66%) to lyse cells and precipitate protein. Eicosanoids were determined by EIA as described above.

[4] = system: carrageenan induced paw edema; experiment: Carrageenan induced paw edema (CPE) in rats; format: in vivo; conditions: 10 mpk oral, rat, 3 hours after carrageenan; for inhibition in vivo at 10 mg/kg: read-out: CPE % Inhib. @ 10 mpk
Protocol: as §2, §3
Hingpaw edema was […] in male rats as described by Winter et al., Proc. Soc. Exp. Biol. Med., 1962, 111, 544. Briefly, male Sprague-Dawley rats weighing between 170 and 190 g were administered test compounds orally 1 hour prior to the subplantar injection of 0.1 ml of 1% sodium carrageenan (lambda carrageenan, Sigma Chemical Co., St Louis, Mo.) into the right hindpaw. Right paw volumes (ml) were measured immediately following injection of carrageenan for baseline volume measurements using a Buxco plethysmograph (Buxco Electronics, Inc., Troy, N.Y.). Three hours after the injection of carrageenan, right paws were remeasured and paw edema calculated for each rat by subtracting the zero time reading from the 3 hour reading. Data are reported as mean percent inhibition +/−SEM. Statistical significance of results was analyzed by Dunnetts multiple comparison test where p<0.05 was considered statistically significant.

[5] = molecular target: T3, human amnionic whole cell cyclooxygenase-2 (WISH cells) (Homo sapiens, UniProt P35354); experiment: IL-1β induced PGE2 production in WISH cells; format: cell-based; conditions: read-out: Wish IC50 (parenthetical value)
T3 construct: endogenous in cells; host or cells: human amnionic WISH cells, induced with IL-1beta
T3 sequence (P35354 18-604): T2 sequence (P35354 18-604)
Outline: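 PGE2 was quantified by enzyme immunoassay (optical density read) against standards made up in the matching medium. WISH cells at 80% confluence, washed and placed in serum-free Neuman-Tytell medium, received 5 ng/ml IL-1β plus test compound or DMSO vehicle (0.01% v/v).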

[6] = molecular target: T4, Human Whole Platelet Cyclooxygenase-1 (Homo sapiens, UniProt P23219); experiment: Human Whole Platelet Cyclooxygenase-1 assay (HWPX); format: cell-based; conditions: for IC50: read-out: HWPX IC50 (parenthetical value)
T4 construct: from tissue; host or cells: human blood: isolated platelets (A4) or heparinised whole blood (A9)
Outline: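 Thromboxane production was measured with a commercial kit after stimulation of washed human platelets (ACD-anticoagulated volunteer blood) by 8.8 μM final A23187 for 10 min. Test compounds were added 10 min before stimulus; cold 6 mM EDTA terminated the reaction.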

[7] = system: air pouch prostaglandin biosynthesis (Cox-2); experiment: Carrageenan induced air pouch prostaglandin biosynthesis model (CAP); format: in vivo, rat; conditions: 3 mpk, rat; for inhibition in vivo at 3 mg/kg: 4 h, read-out: CAP % Inhib. @ 3 mpk
Outline: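 Male Sprague Dawley rats with dorsal air pouches (20 mL air day 0, 10 mL day 3) received 0.2% lambda carrageenan in saline into the pouch on day 7. Compounds dosed at 0.1 to 10 mg/kg 30 min before carrageenan; pouch lavaged 4 h later, prostaglandins measured by EIA. Percent inhibition versus control mean; ED50 by linear regression.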

[8] = 100 μM, read-out: RHUCX1 % Inh. at Dose
[9] = read-out: HWPX % Inhib. at Dose
[10] = read-out: RHUCX1 % Inh. at Dose

T1 sequence (P23219 24-599): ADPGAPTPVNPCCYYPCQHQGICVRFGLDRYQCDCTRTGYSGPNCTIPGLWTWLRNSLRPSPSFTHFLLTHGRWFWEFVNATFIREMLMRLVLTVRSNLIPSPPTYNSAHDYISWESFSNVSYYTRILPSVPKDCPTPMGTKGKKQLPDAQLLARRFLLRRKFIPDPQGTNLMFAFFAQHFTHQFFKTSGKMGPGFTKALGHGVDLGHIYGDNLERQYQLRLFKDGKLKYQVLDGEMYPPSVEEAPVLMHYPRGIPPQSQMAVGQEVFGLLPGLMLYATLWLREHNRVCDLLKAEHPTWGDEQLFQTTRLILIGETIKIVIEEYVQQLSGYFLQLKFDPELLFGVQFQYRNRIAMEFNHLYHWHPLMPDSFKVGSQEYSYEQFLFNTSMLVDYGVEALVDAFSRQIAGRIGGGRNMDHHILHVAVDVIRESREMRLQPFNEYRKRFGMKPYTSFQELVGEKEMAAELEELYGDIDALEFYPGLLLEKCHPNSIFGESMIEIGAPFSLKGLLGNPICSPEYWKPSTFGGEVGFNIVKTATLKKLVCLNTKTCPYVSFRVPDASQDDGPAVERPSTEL
T4 sequence (P23219 24-599): as above

Row | inhibition at 100 µM [1, 8] [%] | inhibition at 1 µM [2] [%] | IC50 [5] [nM] | melting point | IC50 [2] [nM] | Structure (SMILES) | inhibition in vivo at 10 mg/kg [3] [%] | inhibition in vivo at 10 mg/kg [4] [%] | further results
1 | 15 | 97 | 25 | 169 to 171 °C | – | CS(=O)(=O)c1ccc(-c2cnn(C3CCCCC3)c(=O)c2-c2ccc(F)cc2)cc1 [Example 120, 2-Cyclohexyl-4-(4-fluorophenyl)-5-[4-(methylsulfonyl)phenyl]-3(2H)-pyridazinone] | 5 | 11 | inhibition at 0.1 µM [2]: 45%; inhibition at 1 µM [6, 9]: 58%; inhibition at 3 µM ([6]; 3 μM, read-out: HWPX % Inhib. at Dose): 74%
2 | – | – | – | 109 to 110 °C | 70 | CS(=O)(=O)c1ccc(-c2cnn(-c3ccc(F)c(F)c3)c(=O)c2-c2ccc(F)cc2)cc1 [Example 182, 2-(3,4-Difluorophenyl)-4-(4-fluorophenyl)-5-[4-(methylsulfonyl)phenyl]-3(2H)-pyridazinone] | 59 | 27 | IC50 ([1]; read-out: RHUCX1 IC50 (parenthetical value)): 5010 nM; inhibition in vivo at 3 mg/kg [7]: 98%
3 | 0 | 85 | 9 | 219 to 224 °C | – | Cc1ccc(-n2ncc(-c3ccc(S(C)(=O)=O)cc3)c(-c3ccc(F)cc3)c2=O)s1 [Example 168] | 0 | 6 | inhibition at 0.1 µM [2]: 93%; inhibition at 1 µM [6, 9]: 47%
4 | – | – | 30 | 214 to 216 °C | – | CS(=O)(=O)c1ccc(-c2cnn(-c3ccc(Cl)cc3)c(=O)c2-c2ccc(F)cc2)cc1 [Example 160, 2-(4-Chlorophenyl)-4-(4-fluorophenyl)-5-[4-(methylsulfonyl)phenyl]-3(2H)-pyridazinone] | 56 | 35 | IC50 [6]: 7200 nM
5 | – | – | – | 214 to 215 °C | 64 | NS(=O)(=O)c1ccc(-c2cnn(CC(F)(F)F)c(=O)c2-c2ccc(Cl)c(F)c2)cc1 [Example 80, 2-(2,2,2-Trifluoroethyl)-4-(4-chloro-3-fluorophenyl)-5-[4-(aminosulfonyl)phenyl]-3(2H)-pyridazinone] | 60 | 28.5 | inhibition at 1 µM ([1]; 1 μM, read-out: RHUCX1 % Inh. at Dose): 37%; inhibition at 10 µM [1, 10]: 41%; inhibition in vivo at 3 mg/kg [7]: 91%
6 | 35 | 39 | 126 | 154 to 155 °C | – | C[S+]([O-])c1ccc(-c2cnn(CC(F)(F)F)c(=O)c2-c2ccc(Cl)cc2)cc1 (stereo not shown) [Example 77] | 51 | 21 | inhibition at 10 µM [2]: 82%; IC50 [6]: 8800 nM
7 | – | – | – | – | – | CCCc1ccc(-c2c(-c3ccc(S(C)(=O)=O)cc3)cnn(CC(F)(F)F)c2=O)cc1 [Example 66, 2-(2,2,2-Trifluoroethyl)-4-(4-n-proylphenl)-5-[4-(methylsulfonyl)phenyl]-3(2H)-pyridazinone] | – | – | CIP % Inhib. @ 10 mpk [3]: 59%; CPE % Inhib. @ 10 mpk [4]: 7%; CAP % Inhib. @ 3 mpk [7]: 0%
8 | – | – | 41 | – | 5 | CS(=O)(=O)c1ccc(-c2cnn(C3CCCC3)c(=O)c2-c2ccc(F)cc2)cc1 [Example 121, 2-Cyclopentyl-4-(4-fluorphenyl)-5-[4-(methylsulfonyl)phenyl]-3(2H)-pyridazinone] | – | – | RHUCX1 % Inh. at Dose (μM) ([1]; 100 μM): 0 @ 100%; CIP % Inhib. @ 10 mpk [3]: 19%; CPE % Inhib. @ 10 mpk [4]: 8%
9 | 6 | – | – | 168 to 169 °C | 624 | CS(=O)(=O)c1ccc(-c2cnn(-c3ccc(F)cc3)c(=O)c2-c2ccc(F)cc2)cc1 [Example 62, 2,4-Bis(4-fluorophenyl)-5-[4-(methylsulfonyl)phenyl]-3(2H)-pyridazinone] | 57 | 21 | –
10 | 0 | – | – | 55 to 57 °C | 950 | CS(=O)(=O)c1ccc(-c2cnn(CC(F)(F)F)c(=O)c2-c2ccc(Cl)cc2)cc1 [Example 58, 2-(2,2,2-Trifluoroethyl)-4-(4-chlorophenyl)-5-[4-(methylsulfonyl)phenyl]-3(2H)-pyridazinone] | 42 | 14 | inhibition in vivo at 3 mg/kg [7]: 67%
11 | – | – | – | – | – | CS(=O)(=O)c1ccc(-c2cnn(-c3ccccc3F)c(=O)c2-c2ccc(F)cc2)cc1 [Example 185, 2-(2-Fluorophenyl)-4-(4-fluorophenyl)-5-[4-(methlsulfonyl)phenyl]-3(2H)-pyridazinone] | – | – | CIP % Inhib. @ 10 mpk [3]: 59%; CPE % Inhib. @ 10 mpk [4]: 20%; CAP % Inhib. @ 3 mpk [7]: 53%
12 | 0 | 77 | – | 219 to 220 °C | – | CS(=O)(=O)c1ccc(-c2cnn(-c3ccccc3)c(=O)c2-c2ccc(F)cc2)cc1 [Example 12, 2-Phenyl-4-(4-fluorophenyl)-5-[4-(methylsulfonyl)phenyl]-3(2H)-pyridazinone] | 42 | 25 | inhibition at 0.1 µM [2]: 9%; inhibition at 10 µM [2]: 97%
13 | 82 | 99 | – | 185 to 189 °C and 188 to 191 °C | – | NS(=O)(=O)c1ccc(-c2cnn(Cc3ccccc3)c(=O)c2-c2ccc(F)cc2)cc1 [Example 384, 2-Benzyl-4-(4-fluorophenyl)-5-[4-(aminosulfonyl)phenyl]-3(2H)-pyridazinone] | 51 | 15 | inhibition at 10 µM [1, 10]: 49%; inhibition at 0.1 µM [2]: 78%; inhibition in vivo at 3 mg/kg [7]: 51%
14 | 16 | – | – | 177 to 179 °C | 920 | CS(=O)(=O)c1ccc(-c2cnn(CC(F)(F)F)c(=O)c2-c2ccc(F)cc2)cc1 [Example 34, 2-(2,2,2-Trifluoroethyl)-4-(4-fluorophenyl)-5-[4-(methylsulfonyl)-phenyl]-3(2H)-pyridazinone] | 36 | 31 | –
